This is an account of results in patent publication US4272507A, “Phenylaminothiophenacetic acids, their synthesis, compositions and use” (priority 1978, dated 1981).

In data set [1] the test system is carrageenin edema of the hind paw of rats. Put plainly: Acute antiphlogistic action: carrageenin edema of the hind paw of rats after single oral administration. Particulars: for ED50: Rattus norvegicus, po, read-out: ED50 (dose which causes a maximum edema inhibition of 50%); for Therapeutic quotient LD50/ED50: carrageenin edema, LD50 7 days oral; for Therapeutic quotient LD50/ED50 / Maximum inhibition of carrageenin edema within 7 hours after oral administration: rats. On the procedure:
(§1) Biol. Med., 111 (1962) 544]}, on chronic inflammatory processes {Cotton pellet test on rats [Winter et al.: J. Pharmacol. exp. Therap., 141 (1963) 369]} and on adjuvant arthritis [based on the method of Perrine et al., Brit. J. Pharmacol., 21 (1963) 127] is determined.
The influence of the compounds to be tested on carrageenin edema of the hind paw of rats was determined as follows:
The rats are kept at 24° C.
The paw volume of each rat is determined (2 to 3 individual measurements in each case) before edema provocation and at hourly intervals for 7 hours after edema provacation. The average percentage paw swelling of each treated group determined at the specified times after the carrageenin injection is related to that of the untreated control group (=100%).
The maximum percentage edema inhibition serves as a measure of the antiphlogistic action.
The paw volume is determined plethysmometrically. Measuring principle: the volume of liquid displaced through the paw of the rat is recorded digitally via an electromechanical pressure transducer (Statham P 23 V, 0-200 mm Hg).
The doses indicated for the compounds tested were administered in a volume of liquid of 20 ml/kg.
(In general: In the carrageenan paw model, swelling and tenderness develop within hours.)

A further data set can be described thus: in vivo. The note with it: rat, po.
Data set [2] deals with yeast-induced fever in rats. Briefly: Antipyretic action: yeast-induced fever in rats. Format: in vivo, rats (female Sprague-Dawley). The note with it: for ED (1.5 degC): Rattus norvegicus, po, read-out: ED1.5 (dose which causes a maximum reduction in yeast-induced fever of 1.5° C.); for Therapeutic quotient LD50/ED2.5: yeast-induced fever, LD50 7 days. On the procedure: The antipyretic action is determined by the influence of the compounds to be tested on yeast-induced fever in rats.
Hyperthermia is produced in female Sprague-Dawley rats (in groups of 5 animals; weight of each animal: 160 to 180 g) by subcutaneous injection (neck) of 10 ml/kg of a 20 percent strength aqueous brewer's yeast suspension (brewer's yeast "Heliosan"/Hefereformwerk Radolfzell). 24 hours after the yeast injection, the compounds to be tested are administered orally to the animals in a volume of liquid of 5 ml/kg, and a control group receives the corresponding amount of tapwater. The feed (Altromin®R, water ad libitum) was withdrawn from the rats 18 hours beforehand. The rats are kept at about 23° C.
The body temperature is recorded 1 hour before administration of the substance and at hourly intervals after administration of the substance.
[…] The body temperature is measured with a temperature probe (Tastomed H, Braun electronic).

The subject of another data set is rats. Particulars: 7 days (Table 6).
The conditions of data set [3]: versus phenylbutazone; Alpermann 1970, 1972; cited from earlier work.
In data set [4] the test system is adjuvant arthritis in rats. Put plainly: Antiarthritic action: adjuvant arthritis in rats (Mycobacterium butyricum). As to the method: as §1
The influence of the compounds to be tested on polyarthritis in rats caused by Mycobacterium butyricum (so-called "adjuvant arthritis") was determined using the experimental arrangement hereafter described: based on the method described by NEWBOULD and PERRINE et al. [NEWBOULD, B. B.; Brit. J. Pharmacol. 21, 127 (1963); and PERRINE, J. W. and TAKESUE, E. I.; Arch. int. Pharmacodyn., 174, 192 to 198 (1968)], so-called adjuvant arthritis, which manifests itself chiefly in a severe swelling of the tail (primary lesion) and of the paws (secondary lesion), is caused in rats by intradermal injection of a Mycobact. butyricum suspension in liquid paraffin into the base of the tail. Antiphlogistic agents inhibit this swelling reaction.

For data set [5], the system named is pain reaction provoked in rats by bending an inflamed ankle (AgNO3 arthritis). Briefly: animal or person. The format is in vivo. On the procedure: Based on the method of HOFFMEISTER et al. [Arzneim. Forsch., 24, (1974) 600], 0.2 ml of a 1% strength silver nitrate solution is injected into the ankle joint (inside) of the right hind paw of female Sprague-Dawley rats (each animal weighing about 160 to 180 g) under ether anaesthesia. The animals are kept at 24° C. and are fed Altromin®R and water ad libitum. After the AgNO3 injection, almost all the animals (90 to 95%) can be made to cry out by moderate bending of the ankle joint. All the animals reacting positively are collected into groups of 10 animals. The compounds to be tested are administered orally in a volume of liquid of 10 ml/kg immediately after administration of the AgNO3; the untreated control animals receive the corresponding amount of tapwater.
Over a period of 4 hours after administration of the substance, the number of animals reacting is determined at half hourly intervals.
The maximum percentage of the protected animals over a period of 4 hours after administration of the substance [relative to the number of animals in the control group reacting (=100%)] serves as a measure of the analgesic action.

Data set [6] concerns formation of granulation tissue after subcutaneous implantation of cotton. Put plainly: Chronic antiphlogistic action: cotton pellet test (formation of granulation tissue) in rats. The note with it: rats; for Therapeutic quotient LD50/ED20: cotton pellet test, LD50 7 days oral; for Inhibition of the formation of granulation tissue after treatment for 7 days: sodium salt. As to the method: as §1
Experimental procedure for investigating the influence of the compounds to be tested on the formation of granulation tissue after implantation of cotton in rats (so-called cotton pellet method):
1 cotton pellet (manufacturer: Messrs. Hartmann/Heidenheim; cotton pellets size 2, No. 4865/2) which weighs 13.0±0.5 mg and has been impregnated beforehand with 0.1 ml of a solution of 0.5 mg of penicillin G and 0.8 mg of streptomycin sulfate/1 ml of distilled water is in each case implanted subcutaneously into the shoulder-blade region, on both sides, of male Sprague-Dawley rats (groups of 8 animals each; weight of each animal: 150 to 170 g) under diethyl ether anaesthesia and under sterile conditions. The cut skin is closed by means of clamps.
The compounds to be tested (in the form of the sodium salt in aqueous solution) or the corresponding amount (5 ml/kg/day) of tapwater (=control group) are administered orally each day on seven successive days. On the eighth day, the animals are killed and the cotton granules are exposed carefully, that is to say preserving the fibrous tissue capsule, dried (15 hours at 120°) and weighed. By substracting the weight of the cotton pellets, the amount of newly formed granulation tissue is obtained.
The percentage reduction in the average granuloma dry weight of a treated group compared with the control group (=100%) serves as a measure of the antiproliferative action of a compound.

The mark [7] stands for this setting: rats, single oral dose 0.3 mg/kg.
Setting [8] is: AgNO3 arthritis pain, LD50 7 days oral, rats.

Read-outs that look alike come from different tables or passages of the source.

Consider `Cc1cccc(Cl)c1Nc1ccsc1CC(=O)O` [Compound 11, 3-(2-chloro-6-methylanilino)-2-thiophenacetic acid], for which, in data set [1], the ED50 – broadly, the midpoint of the dose-response relation – was roughly 3 mg/kg and the “Therapeutic quotient LD50/ED50” value is given as greater than 6.7. The “Maximum inhibition of carrageenin edema within 7 hours after oral administration” value (“Maximum inhibition” below) in data set [1] (single oral dose 3.0 mg/kg) turned out to be 49%. Besides, in “in vivo”, the LD50 (as a rule, the dose expected to kill half of the subjects tested) at 168 h is greater than 20 mg/kg.
For `O=C(O)Cc1sccc1Nc1c(Cl)cccc1Cl` [Compound 6, 3-(2,6-dichloroanilino)-2-thiophenacetic acid], in data set [1], the ED50 is roughly 3 mg/kg and the “Therapeutic quotient LD50/ED50” value is given as greater than 6.7. Moreover, the “Maximum inhibition” value in data set [1] (single oral dose 3.0 mg/kg) stood at 52%. Moreover, in data set [2] (rats, perorally, single dose), the ED (1.5 degC) was less than 0.3 mg/kg. Further, the “Maximum reduction in yeast-induced fever over a period of 7 hours” value (“Maximum reduction in yeast-induced fever” below) in data set [2] (setting [7]) is 1.7 °C. In addition, the “Therapeutic quotient LD50/ED2.5” value in data set [2] (rats) is listed as greater than 66.7. The molecule further yielded an LD50 at 168 h in “in vivo” greater than 20 mg/kg. Moreover, the “LD50, lethal action after administration for 7 days” value with rats is given as greater than 20 mg/kg/day.
`Cc1c(Cl)cccc1Nc1cscc1CC(=O)O` [Compound 8, 4-(3-chloro-2-methylanilino)-3-thiophenacetic acid]: in data set [1], the ED50 was roughly 3 mg/kg and the “Therapeutic quotient LD50/ED50” value is greater than 10. Further, the “Maximum inhibition” value in data set [1] (single oral dose 3.0 mg/kg) came out at 49%. For the same molecule, the LD50 at 168 h in the data set “in vivo” is greater than 30 mg/kg.
For `O=C(O)c1cscc1Nc1c(Cl)cccc1Cl` [Compound 1, 3-(2,6-dichloroanilino)thiophen-4-carboxylic acid], the ED50 in data set [1] came out at 56 mg/kg; in data set [5] (Rattus norvegicus, po, rats, perorally, at the time of maximum action, read-out: ED50 (dose which completely suppresses the pain reaction in 50% of the animals)), 140 mg/kg. The “Therapeutic quotient LD50/ED50” value in data set [1] came to 2.1; in data set [5] (setting [8]), 0.86. For the same molecule, the entries for the “Maximum inhibition” value in data set [1] (single oral dose 10.0 mg/kg) and in data set [1] (single oral dose 100.0 mg/kg) were 31% and 57%, respectively. In data set [3], the actions entry was “superior to those of phenylbutazone”. In addition, in data set [2] (rats, perorally, single dose), the ED (1.5 degC) was found to be 8.2 mg/kg. Also, the “Maximum reduction in yeast-induced fever” value in data set [2] (rats, single oral dose 1 mg/kg) was determined as 0 °C; in data set [2] (rats, single oral dose 3 mg/kg), 0.6 °C; in data set [2] (rats, single oral dose 10 mg/kg) it was 1.7 °C; in data set [2] (rats, single oral dose 30 mg/kg), 2.1 °C. For the same molecule, the ED25 in data set [4] (Rattus norvegicus, po, 120 h, read-out: ED25 (inhibition of adjuvant arthritis of 25%)) was 9 mg/kg/day; in data set [5] (Rattus norvegicus, po, read-out: ED25 (dose which completely suppresses the pain reaction in 25% of the animals)), 30 mg/kg. Moreover, the “therapeutic quotient LD50/ED25” value in data set [4] (adjuvant arthritis, LD50 7 days oral, rats) was found to be 13.3; in data set [5] (setting [8]), 4. The molecule further returned an LD50 at 168 h in “in vivo” of 120 mg/kg. For the same molecule, the “Inhibition of the pain reaction” value in data set [5] (rats, single oral dose 3 mg/kg) stood at 10%; in data set [5] (rats, single oral dose 20 mg/kg), 20%; in data set [5] (rats, single oral dose 100 mg/kg), 40%; in data set [5] (rats, single oral dose 200 mg/kg) it was 60%.
Regarding `O=C(O)Cc1cscc1Nc1c(F)cccc1F` [Compound 12, 4-(2,6-difluoroanilino)-3-thiophenacetic acid], the ED (1.5 degC) in data set [2] (rats, perorally, single dose) turned out to be 0.9 mg/kg. The “Maximum reduction in yeast-induced fever” value in data set [2] (setting [7]) was 0.5 °C; in data set [2] (rats, single oral dose 1 mg/kg), 1.6 °C. Also, the “Therapeutic quotient LD50/ED2.5” value in data set [2] (rats) was greater than 33. In the data set “in vivo”, this molecule returned an LD50 at 168 h greater than 30 mg/kg.
Regarding `Cc1cccc(Nc2cscc2CC(=O)O)c1Cl` [Compound 7, 4-(2-chloro-3-methylanilino)-3-thiophenacetic acid], in “in vivo”, the LD50 at 168 h was greater than 20 mg/kg. Further, the “Therapeutic quotient LD50/ED20” value in data set [6] is listed as greater than 5.7. For the same molecule, the “Inhibition of the formation of granulation tissue after treatment for 7 days” value in data set [6] (7 x 3.0 mg/kg/day orally) stood at 19%; in data set [6] (7 x 10.0 mg/kg/day orally), 27%.
For the molecule `Cc1ccc(Cl)c(Nc2cscc2CC(=O)O)c1Cl` [Compound 5, 4-(2,6-dichloro-3-methylanilino)-3-thiophenacetic acid], the ED (1.5 degC) in data set [2] (rats, perorally, single dose) was less than 0.3 mg/kg. Moreover, the “Maximum reduction in yeast-induced fever” value in data set [2] (setting [7]) turned out to be 1.7 °C. In addition, in data set [2] (rats), the “Therapeutic quotient LD50/ED2.5” value is recorded as greater than 26.7. Moreover, the LD50 at 168 h in “in vivo” is 8 mg/kg. In data set [6], the “Therapeutic quotient LD50/ED20” value turned out to be 5. Besides, the “Inhibition of the formation of granulation tissue after treatment for 7 days” value is listed as 16% in data set [6] (7 x 1.0 mg/kg/day orally) and 26% in data set [6] (7 x 3.0 mg/kg/day orally).
For `Cc1cccc(Nc2cscc2C(=O)O)c1Cl` [2-chloro-3-methylphenyl derivative], the actions entry in data set [3] is “superior to those of phenylbutazone”.
`Cc1cccc(Cl)c1Nc1cscc1CC(=O)O` [Compound 4, 4-(2-chloro-6-methylanilino)-3-thiophenacetic acid]: in data set [1], the 50% effective dose (ED50) was found to be 3 mg/kg and the “Therapeutic quotient LD50/ED50” value is listed as greater than 6.7. Also, the “Maximum inhibition” value in data set [1] (single oral dose 3.0 mg/kg) amounted to 50%. Besides, the ED (1.5 degC) in data set [2] (rats, perorally, single dose) is roughly 0.3 mg/kg. Besides, in data set [2] (setting [7]), the “Maximum reduction in yeast-induced fever” value was found to be 1.4 °C. Moreover, the “Therapeutic quotient LD50/ED2.5” value in data set [2] (rats) was greater than 66.7. Moreover, the LD50 at 168 h in “in vivo” is greater than 20 mg/kg. Besides, the “LD50, lethal action after administration for 7 days” value in the data set with rats was greater than 20 mg/kg/day.
`O=C(O)Cc1csc(Cl)c1Nc1c(Cl)cccc1Cl` [Compound 10, 5-chloro-4-(2,6-dichloroanilino)-3-thiophenacetic acid]: in data set [2], the ED (1.5 degC) worked out at 0.5 mg/kg. Besides, the “Maximum reduction in yeast-induced fever” value in data set [2] (setting [7]) was determined as 1.2 °C; in data set [2] (rats, single oral dose 0.6 mg/kg), 1.6 °C.
For `Cc1c(Cl)cccc1Nc1cscc1C(=O)O` [2-methyl-3-chlorophenyl derivative], in data set [3], the actions result is reported as “superior to those of phenylbutazone”.
